What was measured:
[1] = test system: cells in tissue culture; settings: cited from earlier work
[2] = target: T1, ENT2 (Homo sapiens, UniProt Q14542); assay: Inhibition of ENT2 by NBMPR (Ward et al.); type: biochemical
T1 sequence (Q14542 1-456): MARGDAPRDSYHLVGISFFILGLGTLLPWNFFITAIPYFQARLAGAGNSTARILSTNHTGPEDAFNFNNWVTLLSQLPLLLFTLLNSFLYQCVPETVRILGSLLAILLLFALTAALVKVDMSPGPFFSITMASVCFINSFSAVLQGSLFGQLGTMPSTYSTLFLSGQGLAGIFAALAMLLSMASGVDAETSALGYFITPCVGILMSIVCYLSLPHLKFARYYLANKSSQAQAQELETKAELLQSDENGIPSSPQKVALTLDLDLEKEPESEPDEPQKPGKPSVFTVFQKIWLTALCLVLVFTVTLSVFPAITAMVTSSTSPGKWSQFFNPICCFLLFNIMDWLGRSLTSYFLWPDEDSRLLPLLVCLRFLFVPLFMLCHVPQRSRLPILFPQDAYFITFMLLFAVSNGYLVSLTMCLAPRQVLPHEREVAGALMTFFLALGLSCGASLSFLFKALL

[3] = target: T1, ENT2; settings: read-out: Ki of NBMPR for ENT2; Ward et al., J. Biol. Chem. 2000; cited from earlier work
[4] = target: T2, ENT4 (Homo sapiens, UniProt Q7RTT9); settings: cited from earlier work
T2 sequence (Q7RTT9 1-530): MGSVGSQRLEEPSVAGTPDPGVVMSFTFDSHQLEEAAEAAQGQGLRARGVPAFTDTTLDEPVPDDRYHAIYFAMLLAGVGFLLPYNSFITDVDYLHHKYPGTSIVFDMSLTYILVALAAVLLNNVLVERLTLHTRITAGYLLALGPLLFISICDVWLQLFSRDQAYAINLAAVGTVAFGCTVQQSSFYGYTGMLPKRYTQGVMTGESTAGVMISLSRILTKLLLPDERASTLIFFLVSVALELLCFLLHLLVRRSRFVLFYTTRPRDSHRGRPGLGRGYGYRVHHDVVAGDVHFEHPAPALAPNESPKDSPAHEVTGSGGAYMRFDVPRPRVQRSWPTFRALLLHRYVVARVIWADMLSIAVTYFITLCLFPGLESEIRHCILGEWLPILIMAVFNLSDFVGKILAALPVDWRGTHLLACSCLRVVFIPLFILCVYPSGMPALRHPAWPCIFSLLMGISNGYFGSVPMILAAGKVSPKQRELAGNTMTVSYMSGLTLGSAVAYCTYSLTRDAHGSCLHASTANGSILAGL

[5] = test system: ENT subtype equilibrative, insensitive (ei); settings: low concentrations (e.g., <1 μM) of NBMPR; cited from earlier work

ENT2 activity ([2]; at 10 μM NBMPR)	expected suppression of ENT2 activity ([2]; by 10 μM NBMPR) [%]	Compound	harm to cells that it penetrates [1]	Ki [3] [nM]	inhibition of ENT4 by NBMPR [4]	effect of NBMPR on the ei subtype [5]
–	–	mAb 3E10: monoclonal anti-DNA antibody produced by hybridoma 3E10, ATCC accession number PTA-2439	no harm	–	–	–
retains moderate activity	> 50	O=[N+]([O-])c1ccc(CSc2ncnc3c2ncn3C2OC(CO)C(O)C2O)cc1 (stereo not drawn) [NBMPR, Nitrobenzylmercaptopurine riboside]	–	2800	weakly inhibited	unaffected

From patent US10702543B2, “Intranuclear protein transduction through a nucleoside salvage pathway” (The United States Government as represented by The …, priority 2007, dated 2020)
